ChEMBL document CHEMBL1201862, “PubChem BioAssay data set” (2004)
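Test compounds were applied to cells in 96-well plates for 48 hours at 5 doses. GI50: concentration for 50% inhibition of growth.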 Active and inactive are the calls of the source. Cut-off read from the data, not from the text of the source: active = GI50 up to about 1.1 µM and inactive = higher.

Key:
Experiment in all cases: NCI tumour cell line growth inhibition, 48 h
HOP-18 = system: HOP-18
DMS-114 = system: DMS-114
DMS-273 = system: DMS-273
SNB-78 = system: SNB-78
RXF 631 = system: RXF 631
XF498 = system: XF498
DLD-1 = system: DLD-1
KM-20L2 = system: KM-20L2
LXFL 529 = system: LXFL 529

| SMILES | GI50 (HOP-18) | GI50 (DMS-114) | GI50 (DMS-273) | GI50 (SNB-78) | GI50 (RXF 631) | GI50 (XF498) | GI50 (DLD-1) | GI50 (KM-20L2) | GI50 (LXFL 529) |
| --- | --- | --- | --- | --- | --- | --- | --- | --- | --- |
| COC(OC)c1cccnc1C | > 100 µM (inactive) | > 100 µM (inactive) | > 100 µM (inactive) | > 100 µM (inactive) | > 100 µM (inactive) | > 100 µM (inactive) | > 100 µM (inactive) | > 100 µM (inactive) | > 100 µM (inactive) |
| CCN(CC)C(=O)Cc1c(C(=O)N(CC)CC)c(=O)nc2sccn12 | > 100 µM (inactive) | > 100 µM (inactive) | > 100 µM (inactive) | – | – | > 100 µM (inactive) | > 100 µM (inactive) | > 100 µM (inactive) | > 100 µM (inactive) |
| CSc1ccc2c(cc1=O)[C@@H](NC(=O)c1ccc(Cl)cc1)CCc1cc(O)c(O)c(O)c1-2 | > 100 µM (inactive) | 32.4 µM (inactive) | 50.6 µM (inactive) | > 100 µM (inactive) | – | – | 26.1 µM (inactive) | > 100 µM (inactive) | 33.3 µM (inactive) |
| COC(=O)c1nc(N)nc(O)c1CCCCCc1c(O)nc(N)nc1C(=O)OC | > 50 µM (inactive) | > 50 µM (inactive) | > 50 µM (inactive) | > 50 µM (inactive) | > 50 µM (inactive) | > 50 µM (inactive) | > 50 µM (inactive) | > 50 µM (inactive) | > 50 µM (inactive) |
| Clc1ccc(Nc2nc3ccccc3nc2-c2cccs2)cc1Cl | 97.5 µM (inactive) | – | 34 µM (inactive) | 58.2 µM (inactive) | 27.8 µM (inactive) | 62.1 µM (inactive) | 36.7 µM (inactive) | 34.6 µM (inactive) | 38.9 µM (inactive) |
| C=CCC1C(=O)CC2(C)C(CC=C)C(=O)CC12C (centres undefined) | > 100 µM (inactive) | – | > 100 µM (inactive) | – | > 100 µM (inactive) | > 100 µM (inactive) | > 100 µM (inactive) | > 100 µM (inactive) | > 100 µM (inactive) |
| NC1=NN(c2ccccc2)C(=O)C1C(=O)C(=O)Nc1ccc(Cl)c(Cl)c1 (centres undefined) | > 100 µM (inactive) | > 100 µM (inactive) | > 100 µM (inactive) | > 100 µM (inactive) | > 100 µM (inactive) | – | > 100 µM (inactive) | > 100 µM (inactive) | – |
| CC1(c2ccccc2)CC(c2cccc([N+](=O)[O-])c2)=NO1 (centres undefined) | > 100 µM (inactive) | 44.2 µM (inactive) | > 100 µM (inactive) | > 100 µM (inactive) | > 100 µM (inactive) | – | > 100 µM (inactive) | – | 94.2 µM (inactive) |
| O=C(Nc1ccccc1-c1nc2ccccc2[nH]c1=O)c1ccccc1 | – | 19.5 µM (inactive) | 22.9 µM (inactive) | 24 µM (inactive) | – | 24.6 µM (inactive) | 29.2 µM (inactive) | 39.6 µM (inactive) | 24.6 µM (inactive) |
| O=Cc1c(O)ccc2ccc(O)c(-c3c(O)ccc4ccc(O)cc34)c12 | 49.5 µM (inactive) | 96.2 µM (inactive) | > 100 µM (inactive) | > 100 µM (inactive) | – | – | > 100 µM (inactive) | > 100 µM (inactive) | 75.3 µM (inactive) |
| COC(=O)/C(=N\O)C(C(=O)C=C(C)C)C(=O)C(=O)Nc1ccccc1C (centres undefined) | > 100 µM (inactive) | > 100 µM (inactive) | > 100 µM (inactive) | > 100 µM (inactive) | – | > 100 µM (inactive) | > 100 µM (inactive) | > 100 µM (inactive) | > 100 µM (inactive) |
| Cc1c(O)c(=O)ccn1C1OC(CO)C(O)C1O (centres undefined) | – | – | 82 µM (inactive) | > 100 µM (inactive) | – | 46.2 µM (inactive) | 91.8 µM (inactive) | 45 µM (inactive) | > 100 µM (inactive) |
| Cc1c2ccccc2c(=O)n2c(-c3ccccn3)cccc12 | > 100 µM (inactive) | > 100 µM (inactive) | > 100 µM (inactive) | > 100 µM (inactive) | – | > 100 µM (inactive) | > 100 µM (inactive) | > 100 µM (inactive) | – |
| COc1ccc2ccnc(Cc3ccc(OCc4ccccc4)c(OC)c3)c2c1 | 16.6 µM (inactive) | – | – | 26.2 µM (inactive) | – | 10.4 µM (inactive) | 25.5 µM (inactive) | 34.5 µM (inactive) | 25.9 µM (inactive) |
| COc1cc(C(CC(OC)OC)=C(C#N)C#N)cc(OC)c1OC | – | 20.7 µM (inactive) | 10.4 µM (inactive) | 60.4 µM (inactive) | – | – | 3.58 µM (inactive) | 11.4 µM (inactive) | 11.4 µM (inactive) |
| C/C1=C\[C@H](C)C[C@H](C)OC(=O)C[C@H](c2ccc(O)cc2)NC(=O)[C@@H](Cc2c(Br)[nH]c3ccccc23)N(C)C(=O)[C@H](C)NC(=O)[C@@H](C)C1 [JASPAMIDE] | – | 0.516 µM (active) | 0.308 µM (active) | 0.374 µM (active) | 0.298 µM (active) | 0.226 µM (active) | 0.843 µM (active) | 0.34 µM (active) | 0.293 µM (active) |
| C/C(CC(=O)Nc1cc(Cl)c(Cl)cc1Cl)=N\NS(=O)(=O)c1ccc(C)cc1 | – | 28.1 µM (inactive) | – | 29 µM (inactive) | 44 µM (inactive) | 28.7 µM (inactive) | 33.4 µM (inactive) | 41.8 µM (inactive) | 36.2 µM (inactive) |
| CS(=O)(=O)OCCN1CCN(C(=O)c2ccc(Cl)c3c(Nc4ccc(S(=O)(=O)N=C(N)N)cc4)c4ccccc4nc23)CC1 | – | > 100 µM (inactive) | > 100 µM (inactive) | – | > 100 µM (inactive) | > 100 µM (inactive) | > 100 µM (inactive) | > 100 µM (inactive) | – |
| C=Cc1ccc(C)[n+](C[Si](C)(C)O[Si](C)(C)C)c1 | – | > 100 µM (inactive) | > 100 µM (inactive) | > 100 µM (inactive) | > 100 µM (inactive) | – | > 100 µM (inactive) | > 100 µM (inactive) | > 100 µM (inactive) |
| CCN(CC)c1c(C(=O)/C=C/c2ccc(F)cc2)c(-c2ccccc2)nn(C)c1=O | 21.2 µM (inactive) | 5.32 µM (inactive) | 6.62 µM (inactive) | 14.4 µM (inactive) | – | – | 3.63 µM (inactive) | 11.8 µM (inactive) | 4.6 µM (inactive) |
| CCn1c2ccccc2c2ccc3c(c21)C(=O)C=CC3=O | 11 µM (inactive) | 6.65 µM (inactive) | 17.2 µM (inactive) | 22 µM (inactive) | – | 3.84 µM (inactive) | 3.85 µM (inactive) | – | 1.93 µM (inactive) |
| CNC(=O)N(C)/N=N/CCCl | – | > 100 µM (inactive) | > 100 µM (inactive) | – | – | – | > 100 µM (inactive) | > 100 µM (inactive) | > 100 µM (inactive) |
| CCOC(=O)C1(CC)CCCCC(=O)N1 (centres undefined) | > 100 µM (inactive) | > 100 µM (inactive) | > 100 µM (inactive) | > 100 µM (inactive) | – | > 100 µM (inactive) | > 100 µM (inactive) | > 100 µM (inactive) | > 100 µM (inactive) |
| c1ccc2c(NCCCCCCNc3cccc4ccccc34)cccc2c1 | > 100 µM (inactive) | 49.1 µM (inactive) | > 100 µM (inactive) | > 100 µM (inactive) | > 100 µM (inactive) | > 100 µM (inactive) | > 100 µM (inactive) | > 100 µM (inactive) | > 100 µM (inactive) |
| O=[N+]([O-])c1cccc(C(O)/C(=N/O)c2nc3ccc(Cl)cc3nc2O)c1 (centres undefined) | > 100 µM (inactive) | > 100 µM (inactive) | – | – | > 100 µM (inactive) | > 100 µM (inactive) | > 100 µM (inactive) | > 100 µM (inactive) | > 100 µM (inactive) |
